From PubChem BioAssay (NCI)
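48-hour exposure; five concentrations; linearly interpolated endpoints. At the TGI there is no net growth.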

Key:
Test in all cases: NCI-60 cell line screen, 48 h
[1] = test system: UACC-257 melanoma
[2] = test system: NCI-H23 lung
[3] = test system: SK-OV-3 ovarian
[4] = test system: SNB-19 CNS
[5] = test system: A549 NSCLC
[6] = test system: UO-31 renal
[7] = test system: PC-3 prostate
[8] = test system: OVCAR-5 ovarian
[9] = test system: BT-549 breast
[10] = test system: NCI-H226 lung
[11] = test system: HCC-2998 colon
[12] = test system: UACC-62 melanoma
[13] = test system: MALME-3M melanoma
[14] = test system: K-562 leukemia
[15] = test system: 786-0 renal
[16] = test system: OVCAR-3 ovarian
[17] = test system: DU-145 prostate
[18] = test system: SK-MEL-2 melanoma
[19] = test system: EKVX NSCLC
[20] = test system: SNB-75 CNS
[21] = test system: SR leukemia
[22] = test system: KM12 colon
[23] = test system: MDA-MB-435
[24] = test system: HOP-62 NSCLC
[25] = test system: MDA-N
[26] = test system: SF-268 CNS
[27] = test system: SK-MEL-28 melanoma
[28] = test system: RXF 393 renal
[29] = test system: M14 melanoma
[30] = test system: TK-10 renal
[31] = test system: MCF7 breast
[32] = test system: ACHN renal
[33] = test system: SK-MEL-5 melanoma
[34] = test system: IGROV1 ovarian
[35] = test system: NCI-H522 lung
[36] = test system: RPMI-8226 leukemia
[37] = test system: CAKI-1 renal
[38] = test system: SF-539 CNS
[39] = test system: NCI-H460 lung
[40] = test system: SF-295 CNS
[41] = test system: MOLT-4 leukemia
[42] = test system: NCI/ADR-RES ovarian
[43] = test system: SN12C renal
[44] = test system: OVCAR-8 ovarian
[45] = test system: SW-620 colon
[46] = test system: U251 CNS
[47] = test system: HCT-15 colon
[48] = test system: HS 578T breast
[49] = test system: HT29 colon

Measured: TGI

O=C(CC(NC(=O)OCc1ccccc1)C(=O)NC1Cc2ccccc2C1=O)OCc1ccccc1 (centres undefined)
> 100 µM: all assays above
